In test [1] the target is T1, Eukaryotic translation initiation factor 4E (Oryctolagus cuniculus, UniProt P29338). The test is described as follows: Inhibition of eukaryotic initiation factor 4E in micrococcal nuclease-pretreated rabbit reticulocyte lysate assessed as inhibition of m7,3'-O-GpppG-capped 5'UTRbetaglob-LUC mRNA translation treated 60 mins before mRNA addition by luciferase-based luminometry.

Test [2] has as its target T1, Eukaryotic translation initiation factor 4E. The test is described as follows: Inhibition of eukaryotic initiation factor 4E in micrococcal nuclease-pretreated rabbit reticulocyte lysate assessed as inhibition of m7,3'-O-GpppG-capped 5'UTRbetaglob-LUC mRNA translation by luciferase-based luminometry.

Our source for the IC50 values is BindingDB's records for doi:10.1016/j.bmcl.2009.02.053 (University of Warsaw, 2009).

SMILES strings stand for the structures.

T1 sequence (P29338 whole entry): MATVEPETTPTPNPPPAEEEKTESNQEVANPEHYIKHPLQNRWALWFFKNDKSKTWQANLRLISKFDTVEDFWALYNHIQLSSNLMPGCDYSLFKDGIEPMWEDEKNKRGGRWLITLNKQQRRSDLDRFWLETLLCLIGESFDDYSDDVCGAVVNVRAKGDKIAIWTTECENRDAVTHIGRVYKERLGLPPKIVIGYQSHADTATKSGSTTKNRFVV

What is called IC50 is the point on the concentration scale where inhibition reaches its midpoint. As for `C[n+]1cn(C2OC(COP(=O)(S)OP(=O)(O)OP(=O)(O)O)C(O)C2O)c2nc(N)[n-]c(=O)c21` [2-amino-9-[(2R,3R,4S,5R)-3,4-dihydroxy-5-{[({[(phosphonatooxy)phosphinato]oxy}(sulfanidyl)phosphoryl)oxy]methyl}oxolan-2-yl]-7-methyl-6-oxido-9H-purin-7-ium], the IC50 was 1.3 µM in test [1] and 1.44 µM in test [2].
